Series [1] concerns the target T1, Protein cereblon/Serine/threonine-protein kinase PLK4 (Homo sapiens, UniProt O00444+Q96SW2). Put plainly: Protac activity at CRBN/PLK4 in human MCF7 cells at 1 uM incubated for 48 hrs by Western blot analysis. The format is cell-based.
Target sequence in this assay (Q96SW2 whole entry, looked up, one chain of several): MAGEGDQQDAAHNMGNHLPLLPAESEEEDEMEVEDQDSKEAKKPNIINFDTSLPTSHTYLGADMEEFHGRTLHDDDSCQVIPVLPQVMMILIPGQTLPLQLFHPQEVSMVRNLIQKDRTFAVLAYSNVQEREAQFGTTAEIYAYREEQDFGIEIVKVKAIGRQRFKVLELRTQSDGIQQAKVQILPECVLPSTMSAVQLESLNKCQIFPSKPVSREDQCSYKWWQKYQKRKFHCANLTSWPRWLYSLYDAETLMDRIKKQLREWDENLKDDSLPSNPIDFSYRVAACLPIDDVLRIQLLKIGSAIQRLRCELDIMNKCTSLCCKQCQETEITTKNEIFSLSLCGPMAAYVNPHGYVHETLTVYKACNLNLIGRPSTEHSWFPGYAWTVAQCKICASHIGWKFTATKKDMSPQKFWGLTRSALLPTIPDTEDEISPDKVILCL
The target of series [2] is T1, Protein cereblon/Serine/threonine-protein kinase PLK4. Put plainly: Protac activity at CRBN/PLK4 in human MCF7 cells at 10 uM incubated for 48 hrs by Western blot analysis. Format: cell-based. For orientation: Immunoblotting shows a protein as a band on a membrane.
Target sequence in this assay (Q96SW2 whole entry, looked up, one chain of several): as above
For series [3] the target is unchanged. The series can be described thus: Protac activity at CRBN/PLK4 in human MCF7 cells by Western blot analysis. The format is cell-based.
Target sequence in this assay (Q96SW2 whole entry, one chain of several): as the sequence (Q96SW2 whole entry, looked up, one chain of several) above
For series [4], the target named is T2, Serine/threonine-protein kinase PLK4 (Homo sapiens) (UniProt O00444).
T2 sequence (whole entry): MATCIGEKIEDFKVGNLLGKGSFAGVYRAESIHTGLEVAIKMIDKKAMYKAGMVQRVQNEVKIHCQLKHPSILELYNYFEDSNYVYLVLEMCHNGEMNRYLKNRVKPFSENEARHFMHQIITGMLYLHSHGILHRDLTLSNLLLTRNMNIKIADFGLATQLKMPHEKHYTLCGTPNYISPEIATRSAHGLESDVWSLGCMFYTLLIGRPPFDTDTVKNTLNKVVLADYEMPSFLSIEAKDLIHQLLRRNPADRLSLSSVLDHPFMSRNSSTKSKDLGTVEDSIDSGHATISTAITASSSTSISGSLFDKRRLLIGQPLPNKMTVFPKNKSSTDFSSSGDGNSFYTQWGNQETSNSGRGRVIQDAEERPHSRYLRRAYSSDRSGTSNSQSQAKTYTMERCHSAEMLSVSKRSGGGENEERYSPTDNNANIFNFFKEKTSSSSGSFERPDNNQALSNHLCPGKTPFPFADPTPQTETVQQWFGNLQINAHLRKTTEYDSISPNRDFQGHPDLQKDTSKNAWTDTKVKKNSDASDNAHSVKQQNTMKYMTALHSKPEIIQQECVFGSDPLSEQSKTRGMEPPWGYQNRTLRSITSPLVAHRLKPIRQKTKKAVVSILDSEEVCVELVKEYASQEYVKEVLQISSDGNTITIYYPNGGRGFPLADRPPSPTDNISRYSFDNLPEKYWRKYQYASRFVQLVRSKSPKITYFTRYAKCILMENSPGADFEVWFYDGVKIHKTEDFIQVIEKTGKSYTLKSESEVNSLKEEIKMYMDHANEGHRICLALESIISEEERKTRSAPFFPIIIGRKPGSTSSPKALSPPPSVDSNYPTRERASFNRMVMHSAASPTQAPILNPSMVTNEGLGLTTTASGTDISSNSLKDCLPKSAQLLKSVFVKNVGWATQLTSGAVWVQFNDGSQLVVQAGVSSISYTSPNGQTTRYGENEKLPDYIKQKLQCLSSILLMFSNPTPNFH
The series can be described thus: Inhibition of PLK4 in human MCF7 cells assessed as reduction in FBXW5 inactivation by Western blot analysis. Format: cell-based. To be noted: dose 1-1000 nM.

A further series relates to MCF7. The series can be described thus: Induction of apoptosis in human MCF7 cells at 0.3 to 3 uM incubated for 36 hrs by Annexin V-FITC//propidium iodide staining based flow cytometry analysis. Format: functional, cell-based. The settings on record: dose 0.3-3 µM. (In general: In flow cytometry, cells or beads pass a laser one at a time.)
Series [5] can be described thus: Stability in human plasma assessed as compound remaining at 100 uM after 60 mins by LC-MS/MS analysis (reference value: 100%). To be noted: read-out: Stability. Format: ADME, cell-free.
The nature of series [6]: Stability in human plasma assessed as compound remaining at 100 uM after 120 mins by LC-MS/MS analysis (reference value: 100%). Format: ADME, cell-free. To be noted: read-out: Stability.
Series [7] in a line: Stability in human plasma assessed as half life at 100 uM after 120 mins by LC-MS/MS analysis. The format is ADME, cell-free.
Series [8] in a line: Metabolic stability in mouse liver microsomes assessed as intrinsic clearance at 100 uM incubated for 60 mins in presence of NADPH by LC-MS/MS analysis. Format: ADME, Microsome. The settings on record: read-out: CLH. For orientation: Microsomes from liver hold many membrane-bound enzymes, among them those of drug oxidation.
A short description of series [9]: Metabolic stability in human liver microsomes assessed as compound remaining at 100 uM incubated for 60 mins by LC-MS/MS analysis. Format: ADME, Microsome. The settings on record: read-out: Stability.
The nature of series [10]: Metabolic stability in mouse liver microsomes assessed as compound remaining at 100 uM incubated for 60 mins by LC-MS/MS analysis. Format: ADME, Microsome. The settings on record: read-out: Stability.
Another series concerns the target T3, CYP1A2 (Homo sapiens, UniProt P05177).
T3 sequence (P05177 whole entry): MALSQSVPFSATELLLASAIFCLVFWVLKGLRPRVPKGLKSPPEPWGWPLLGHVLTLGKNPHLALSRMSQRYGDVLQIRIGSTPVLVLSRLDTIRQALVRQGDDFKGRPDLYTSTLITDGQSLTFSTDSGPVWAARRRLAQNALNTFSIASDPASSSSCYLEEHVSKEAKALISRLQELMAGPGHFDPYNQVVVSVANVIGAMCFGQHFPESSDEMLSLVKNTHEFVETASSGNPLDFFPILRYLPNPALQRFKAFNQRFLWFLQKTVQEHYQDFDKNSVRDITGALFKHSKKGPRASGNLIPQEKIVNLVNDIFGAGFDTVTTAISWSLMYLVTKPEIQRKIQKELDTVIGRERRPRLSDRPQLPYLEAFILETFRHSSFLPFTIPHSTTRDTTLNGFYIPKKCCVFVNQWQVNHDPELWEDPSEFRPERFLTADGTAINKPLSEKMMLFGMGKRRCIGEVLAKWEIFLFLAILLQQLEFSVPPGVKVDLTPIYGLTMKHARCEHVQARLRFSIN
Put plainly: Inhibition of CYP1A2 in human liver microsomes at 10 uM using alpha-Naphthoflavone as substrate preincubated for 10 mins followed by NADPH regenerating system addition and measured after 15 mins by LC-MS/MS analysis relative to control. The format is ADME, Microsome. The settings on record: time 25 min.

Another series has as its target CYP2C9 (Homo sapiens, UniProt P11712). The series can be described thus: Inhibition of CYP2C9 in human liver microsomes at 10 uM using sulfaphenazole as substrate preincubated for 10 mins followed by NADPH regenerating system addition and measured after 15 mins by LC-MS/MS analysis relative to control. The format is ADME, Microsome. To be noted: time 25 min.
Series [11] is described as follows: AUClast in ICR mouse at 2 mg/kg, iv measured upto 24 hrs by LC-M/MS analysis. Format: ADME, organism-based. Also noted: time < 24 hrs, dose 2 mg/kg, route iv. To be noted: in vivo.
Series [12] in a line: Observed AUC infinity in ICR mouse at 20 mg/kg, ip measured upto 24 hrs by LC-M/MS analysis. Format: ADME, organism-based. Also on record: dose 20 mg/kg, time < 24 hrs, route ip. To be noted: in vivo.
The nature of series [13]: Toxicity in nu/nu mouse xenografted with human MCF7 cells assessed as effect on spleen at 20 mg/kg, ip administered once every other day for 21 days by HE staining based analysis. The settings on record: in vivo, 504 h, time 21 day. The format is organism-based.
A short description of series [14]: Toxicity in nu/nu mouse xenografted with human MCF7 cells assessed as effect on lungs at 20 mg/kg, ip administered once every other day for 21 days by HE staining based analysis. The format is organism-based. The settings on record: in vivo, 504 h, time 21 day.

The results in this text go back to ChEMBL document CHEMBL5338818, “Discovery of the First Potent, Selective, and In Vivo Efficacious Polo-like Kinase 4 Proteolysis Targeting Chimera Degrader for the Treatment of TRIM37-Amplified Breast Cancer” (J Med Chem, 2023).

Where only a bound is given, the exact number is not on record here.

Sequence of CYP2C9 (P11712 whole entry): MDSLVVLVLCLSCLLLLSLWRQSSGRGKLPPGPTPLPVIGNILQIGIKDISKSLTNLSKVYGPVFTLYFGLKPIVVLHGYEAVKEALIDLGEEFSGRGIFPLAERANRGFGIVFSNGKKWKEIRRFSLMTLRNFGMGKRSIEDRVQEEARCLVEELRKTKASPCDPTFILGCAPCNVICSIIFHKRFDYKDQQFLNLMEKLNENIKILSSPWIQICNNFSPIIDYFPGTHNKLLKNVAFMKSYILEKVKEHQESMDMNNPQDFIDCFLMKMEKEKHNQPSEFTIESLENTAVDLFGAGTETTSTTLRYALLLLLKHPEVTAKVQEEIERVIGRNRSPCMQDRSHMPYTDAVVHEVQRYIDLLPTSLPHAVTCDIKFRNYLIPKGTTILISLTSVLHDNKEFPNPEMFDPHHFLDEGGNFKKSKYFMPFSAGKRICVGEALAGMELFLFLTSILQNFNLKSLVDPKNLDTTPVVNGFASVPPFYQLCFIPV

In general, inhibition refers to the drop in the measured response relative to a control, in per cent. A word on the half-life: it is the time in which the quantity being followed falls by half. By AUC(0-t) is commonly meant the area under the concentration-time curve up to a stated or last time point. Low readings indicate low exposure, high ones high exposure. Usually AUC(0-inf) stands for total exposure, with the tail of the curve extrapolated. Lower therefore signals low exposure. With `Cc1cc(Nc2nc(NCc3ccc(F)cc3F)nc3c2cnn3C2CCN(C(=O)C3CCN(c4ccc5c(c4)C(=O)N(C4CCC(=O)NC4=O)C5=O)CC3)CC2)n[nH]1` (configuration not stated), the Activity in [1] was 73.4%; in series [2], 83.5%; in the series on MCF7, “Dose-Dependent Effect”; in series [13], “Non-Toxic”; in [14], “Non-Toxic”. Further, the DC50 in [3] was determined as 0.0195 µM. Moreover, the inhibition entry in series [4] was “Dose-Dependent Effect”. Also, the remaining at 1 h, 100 µM in [5] was determined as 83.6%; in series [9] it was 97.3%; in [10], 80.7%. The remaining at 2 h, 100 µM in series [6] is 69.9%. Besides, in series [7], the half-life at 100 µM was greater than 2 h. In addition, the microsomal CLint at 100 µM in series [8] was 17.1 µL/min/mg. For the same compound, the inhibition at 0.25 h, 10 µM was 10.4% against CYP1A2 and 32.5% at CYP2C9. Also, the AUC(0-t) at 24 h in series [11] is 941 ng·h/mL. This compound came in with an AUC(0-inf) in series [12] of 14200 ng·h/mL.
